The text below walks through data of a melting point compilation (Tetko et al.; mined from patent text by program, amines drawn as free bases though some values may be those of a salt).

As a reminder, the melting point is the temperature, or range, at which the solid turns liquid.

Structures are written as SMILES.

`Cc1cc(Cl)c(N=C2NCCN2)cc1[N+](=O)[O-]` yielded a melting point of 198 to 201 °C.
`COc1c(F)c(F)c(C2=CC(=O)NC2=O)c(F)c1F` gave a melting point of 91 °C.
The value for `OC(CNCCCn1cnc2ccccc21)c1ccc(OCc2ccccc2)cc1` (centres undefined) was 83 to 85 °C.
The value for `CNN1c2cc(Cl)cc(Cl)c2[C@@H](C(=O)Nc2ccccc2)C[C@@H]1C(=O)O` (relative stereo) was 139 to 140 °C; that for `CNC(=O)CC(C#Cc1ccccc1)c1ccc(OC)c(OC2CCCC2)c1` (racemic) was 127 to 131 °C.
The value for `CC(Sc1nc(SCc2ccccc2)n[nH]1)C(=O)O` (centres undefined) was 123 to 124 °C; that for `COc1ccc(-c2ccnc3c(C(N)=O)ncn23)cc1OC` was 262 to 265 °C; that for `O=C(NNC(=O)c1occc1-c1cccc(OCc2ccccc2)c1)c1ccc(O)c([N+](=O)[O-])c1` was 171 to 173 °C.
Turning to `CC(CCCC(=O)O)(c1ccc(OCc2ccc3ccccc3n2)cc1)c1ccc(OCc2ccc3ccccc3n2)cc1`, the melting point fell in the range of 87 to 89 °C.
The value for `C[Si](C)(C)C#Cc1cc2cccnc2c(-c2cccc([N+](=O)[O-])c2)n1` was 160 to 163 °C; that for `O=C(O)c1ccc2nc3sc(-c4ccccc4)cc3c(=O)n2c1` was 387 to 392 °C; that for `CCOc1ncc(C(C)=O)cc1C(=O)OC` was 111 to 112 °C.
The value for `Nc1c(F)cc(Cl)c2nc(Cl)sc12` was 173 °C.
With `COc1cc(-c2ncnc(C)c2Cl)c(F)cc1Cl`, the melting point fell in the range of 136 to 140 °C.
The value for `O=C1OCC2(CC2)N1c1nc(-c2ccc(Br)cc2)cs1` was 201 to 202 °C; that for `Fc1ccccc1NC(=S)N1CCN(c2cnccn2)CC1` was 151 to 153 °C; that for `Brc1ccc(Br)c2nc(-c3ccccc3)c(-c3ccccc3)nc12` was 221 to 223 °C.
The value for `Clc1ccc2c(c1)Cc1cc(Cl)ccc1OCCOCCOCCOCCO2` was 144 °C; that for `O=C(Nc1cccc(C(F)(F)F)c1)N1CCCCc2cc(Oc3cc(Cl)ncn3)ccc21` was 120 °C.
The value for `O=C(O)c1csc2ccc(O)cc12` was 262 to 263 °C.
For the compound `CCc1noc(-c2cc3c(cn2)[nH]c2ccccc23)n1`, the melting point lay within 146 to 149 °C.
In the case of `COC(=O)CCCC(=O)c1cc2c(c(S(=O)(=O)Cl)c1)OCC2`, the melting point was in the range of 78 to 79 °C.
The value for `CCC(CC)C(NS(=O)(=O)c1ccc(Cl)s1)c1ccnn1Cc1ccc(O)cc1` (centres undefined) was 90 to 92 °C.
On to `O=[N+]([O-])c1ccc(OC2CCCC2)cc1NC1CCCCC1`, for which the melting point turned out to be 98 °C.
The value for `Cc1cc(=O)c2ccc(OCC(O)CCl)cc2o1` (centres undefined) was 104 to 106 °C.
For `O=C1OC(CO)CN1c1ccccc1` (centres undefined), the melting point lay within 122 to 124 °C.
The value for `COc1ccc(SC(C(=O)O)c2ccccc2)c(Cl)c1Cl` (centres undefined) was 180 to 182 °C.
Consider `COc1ccc(C=CC(=O)c2ccc(OCC(O)CN3CCN(c4ccccc4)CC3)cc2)cc1OC` (centres undefined), for which the melting point fell in the range of 126 to 127 °C.
The value for `COc1cc(N)c(Cl)cc1C(=O)NC1CCN(CCCC2(C)NC(=O)NC2=O)CC1OC` (centres undefined) was 236 °C.
The value for `COC(=O)[C@@H](NC(=O)Oc1ccccc1)C(C)C` was 59.1 °C; that for `CCCCCCc1c(C(=O)O)sc2ccsc12` was 111 to 112 °C; that for `COc1ccc(Sc2sc(S(N)(=O)=O)cc2C)cc1` was 107 to 110 °C.
As for `Cc1cccc(C)c1NC(=O)CC1c2ccccc2Oc2ccccc21`, the melting point fell in the range of 249 to 250 °C.
With `Cc1ccc(S(=O)(=O)N[C@H](CO)CCO)cc1`, the melting point is 90 to 92 °C.
The value for `CC(C)(C=O)C(=O)Nc1ccc(Cl)cc1` was 99 to 100 °C; that for `CN1CCN2C(=O)c3ccccc3C12c1ccccc1` (centres undefined) was 120 to 122 °C; that for `O=C(NCc1ccccc1)c1cn2c(=O)n(Cc3ccc(Cl)c(Cl)c3)c(=O)cc2s1` was 216 to 217 °C.
The value for `N#CC(C(=O)c1ccc(Cl)cc1)=C1CCCN1` was 156 to 158 °C; that for `CCOC(=O)C1CN(C(C)=O)CCN1CC=CC(=O)Nc1cc2c(Nc3ccc(F)c(Cl)c3)ncnc2cc1OCC1CC1` (centres undefined) was 152 to 156 °C.
The value for `COc1ccc(-c2c(CO)c(CO)c3n2Cc2ccccc2C3)cc1` was 174 to 176 °C.
`Nc1nccnc1C(=O)NCCN1CCC(Nc2nc3ccccc3n2Cc2ccc(F)cc2)CC1` registered a melting point of 157 °C.
The compound `C=C(C)C(=O)NC(=O)NCc1ccccc1` returned a melting point of 96 to 98 °C.
The value for `CCCN(CCC)C(=O)COc1nc(-c2ccccc2)nc(C)c1C` was 88 to 89 °C; that for `COc1ccc(-c2nc(C(=O)c3ccc(F)cc3)c[nH]2)cc1` was 245 to 247 °C; that for `O=C(CCl)Nc1nc(-c2ccccc2)cs1` was 179 to 181 °C.
The value for `CCCCn1c(=O)n(CCC)c(=O)c2c3n(nc21)CCCCN3C` was 63 to 65 °C.
With `Cc1cc(N2CCNCC2)ccn1`, the melting point fell in the range of 93 to 94 °C.
Turning to `COc1ccc(Oc2ccccc2)c(NS(C)(=O)=O)c1`, the melting point was 110 to 111 °C.
The value for `CCCNC(=O)C(=CN(C)C)C(=O)c1ccccc1Cl` was 76 to 78 °C; that for `CCc1cn(C2CC(O)C(CNC(=O)C(C)S(=O)c3ccc(Cl)cc3Cl)O2)c(=O)[nH]c1=O` (mixture of isomers) was 208 to 209 °C; that for `Fc1ccc(-n2c3c(c4cc(F)ccc42)CNCC3)cc1` was 126 to 129 °C.
The value for `Cc1nn(C)cc1C(=O)NC(C#N)c1ccco1` (centres undefined) was 122 °C.
The value for `COC(=O)Nc1ccc(CN2CCC(C(O)(c3ccc(OC(F)(F)F)cc3)c3ccc(OC(F)(F)F)cc3)CC2)cc1` was 178 to 182 °C; that for `N#Cc1ccc2c(c1)CCC(CO)O2` (centres undefined) was 85 °C; that for `COc1cc2ncc(C(N)=O)c(Nc3cccc(Br)c3)c2cc1OC` was 239 to 242 °C.
For the compound `COc1ccc(-c2cc(CO)c(=O)n(Cc3ccc(F)c(F)c3)n2)cc1F`, the melting point lay within 154 to 156 °C.
Take `O=C1SC(Cc2ccc(OCCON=Cc3ccc(-c4ccccc4)cc3)cc2)C(=O)N1C(c1ccccc1)(c1ccccc1)c1ccccc1` (centres undefined): the melting point lay in the range of 157 to 159 °C.
The value for `CCCC(=O)Nc1cccc2c1C(=O)c1c-2n[nH]c1-c1ccc(OC)cc1` was 282 °C.
In the case of `CN1C(=O)CC[C@]2(C)c3ccc(CCc4ccccc4)cc3CC[C@@H]12`, the melting point lay in the range of 109 to 111 °C.
`CC(C)C(CC(O)C(CC1CCCCC1)NC(=O)C(Cc1c[nH]cn1)NC(=O)C(N)Cc1ccccc1)C(O)CN(Cc1ccccn1)C(=O)OCc1ccccc1` (mixture of isomers): the melting point stood at 94 °C.
`COc1ccc(S(=O)(=O)Nc2ccccc2Nc2ccc(Cl)cc2)cc1` had a melting point of 127 to 128 °C.
The value for `CCOP(=O)(OCC)C1(P(=O)(OCC)OCC)CC(C(=O)c2ccccc2[N+](=O)[O-])=NN1` was 111 to 112 °C; that for `COc1cc(-c2ccccc2)on1` was 69 to 71 °C; that for `CNC(C)=C(C(C)=O)S(=O)(=O)NC(=O)Nc1nc(C)cc(C)n1` was 192 °C.
